Measured values reported in patent US8222414B2, “Indole compounds as an inhibitor of cellular necrosis” (LG Life Sciences Ltd., priority 2007, dated 2012).

Tested on: primary hepatocytes isolated from rats
Test: Cell protective effects against doxorubicin in hepatocytes (WST-1 cell viability)
Type: cell-based
Conditions: primary rat hepatocytes pretreated with compound for 30 min, then doxorubicin, viability by WST-1 after 24-48 h
Protocol: Various endogenous/exogenous attacks on the cells trigger the mechanisms of cell death which is broadly classified into two types, i.e. apoptosis or necrosis. Using these cell death mechanisms, in the present experimental example, primacy hepatocytes isolated from rats were treated with drugs which were clinically shown to result in serious side-effects of hepatocyte toxicity or various chemicals which derive cell death, and the compounds synthesized in the Examples were estimated for their hepatocyte protective effects, after 24-48 h. The substances used to derive hepatocyte death include CCl4, ActD, H2O2, doxorubicin, anti-Fas Ab/Actinomycin D, acetaminophen, EtOH, CdCl2, palmitate, stearate, cyclophosphamide, terfenadine, diclofenac, simvastatin, and adefovir. Primary hepatocytes were isolated using the method of Seglen P O (Experimental Cell Research 74 (1972) pp 450-454). Briefly, hepatocytes were isolated according to the two-step collagenase perfusion method, and dead cells were removed by low speed (500 rpm) centrifugation for 10 min using percoll gradient (Kreamer B L etc, In Vitro Cellular & Developmental Biology 22 (1986) pp 201-211). During this step, the viability of cells was maintained 90% or above. The cells were suspended in HepatoZYME media (Gibco BRL), and the number of cells was counted. 1.5×10^4 cells in 100 μl were placed into the collagen-coated 96-well plate (BD biocoat), and adhered on the bottom for 3-4 h.
In order to assess the hepatocyte protective effect, above adhered cells were pretreated with the Example compounds for 30 min. At this time, the concentration of the Example compounds were serially diluted by 2-fold or 3-fold over 5 steps starting from 30 uM, 10 uM or 1 uM depending on the experiments, and the final concentration of DMSO was adjusted to 0.2%. 30 min after the treatment by compounds, cells were treated by the substances deriving hepatocyte death or hepatotoxic drugs at the concentrations indicated in Table 1. After 24-48 h, the viability of cells was determined to estimate the hepatocyte protective effects. The viability of cells was determined using WST-1 (MK-400, […]) method by the absorbance at 440 nm. Hepatocyte protective effects of the Example compounds were represented by “EC50” which was calculated from measured values. “EC50” herein means the concentration of the compound at which 50% of maximum protective effect is observed in the experiment.

Row | SMILES | EC50 (Hepatocyte) | EC50
1 | Cc1cc(NCC2CCOCC2)c2[nH]c(C3=N[C@@H](CCN4CCNC(=O)C4)CS3)cc2c1 [Example 253, (5-Methyl-2-{(S)-4-[2-oxopiperazin-4-yl-ethyl]-4,5-dihydro-thiazol-2-yl}-1H-indol-7-yl)-(tetrahydropyran-4-yl)methyl-amine] | 200 nM | 
2 | Cc1cc(NC2CCOCC2)c2[nH]c(C3=N[C@@H](CC(=O)O)CS3)cc2c1 [Example 25, [(S)-2-(5-methyl-7-(tetrahydropyran-4-yl)amino-1H-indol-2-yl)-4,5-dihydro-thiazol-4-yl]-acetic acid] | 760 nM | 
3 | O=C1CN(CC[C@H]2CSC(c3cc4cc(Oc5ccccc5)cc(NC5CCCC5)c4[nH]3)=N2)CCN1 [Example 233] |  | 270 nM
4 | Cc1cc(NC2CCCC2)c2[nH]c(C3=N[C@@H](CC(=O)O)CS3)cc2c1 [Example 26, [(S)-2-(5-methyl-7-cyclopentylamino-1H-indol-2-yl)-4,5-dihydro-thiazol-4-yl]-acetic acid] | 200 nM | 
5 | O=C(O)C[C@@H]1CSC(c2cc3cc(Oc4cccnc4)cc(NC4CCOCC4)c3[nH]2)=N1 [Example 90, [(R)-2-(5-(pyridin-3-yl)oxy-7-(tetrahydropyran-4-yl)amino-1H-indol-2-yl)-4,5-dihydro-thiazol-4-yl]-acetic acid] | 7920 nM | 
6 | O=C(O)C[C@@H]1CSC(c2cc3cc(Oc4ccccc4)cc(NCC4CCOCC4)c3[nH]2)=N1 [Example 15, [(R)-2-(5-phenoxy-7-(tetrahydropyran-4-yl)methylamino-1H-indol-2-yl)-4,5-dihydro-thiazol-4-yl]-acetic acid] | 600 nM | 
7 | Cc1cc(NC2CCOCC2)c2[nH]c(C3=N[C@H](CC(=O)O)CS3)cc2c1 [Example 93, [(R)-2-(5-methyl-7-(tetrahydropyran-4-yl)amino-1H-indol-2-yl)-4,5-dihydro-thiazol-4-yl]-acetic acid] | 550 nM | 
8 | CN(C)c1cccc(CC[C@H]2CSC(c3cc4cc(Cl)cc(NC5CCCC5)c4[nH]3)=N2)c1 [Example 177, (5-Chloro-2-{(S)-4-[2-(3-dimethylamino-phenyl)-ethyl]-4,5-dihydro-thiazol-2-yl}-1H-indol-7-yl)-cyclopentyl-amine] | > 1000 nM | 
9 | CS(=O)(=O)c1ccc(Oc2cc(NC3CCCC3)c3[nH]c(C4=N[C@H](CC(=O)O)CS4)cc3c2)cc1 [Example 94, [(R)-2-(5-(4-(methanesulfonyl)phenoxy)-7-cyclopentylamino-1H-indol-2-yl)-4,5-dihydro-thiazol-4-yl]-acetic acid] | 28100 nM | 
10 | Cc1cc(NC2CCCC2)c2[nH]c(-c3ncc(CO)s3)cc2c1 [Example 130, [2-(5-Methyl-7-cyclopentylamino-1H-indol-2-yl)-thiazol-5-yl]-methanol] | 100 nM | 
11 | O=C1CCCN1CC[C@@H]1CSC(c2cc3cc(F)cc(NC4CCCC4)c3[nH]2)=N1 [Example 205, (5-Fluoro-2-{(R)-4-[(2-oxopyrrolidin-1-yl)-ethyl]-4,5-dihydro-thiazol-2-yl}-1H-indol-7-yl)-cyclopentyl-amine] | 340 nM | 
12 | O=C1CN(CC[C@H]2CSC(c3cc4cccc(NC5CCOCC5)c4[nH]3)=N2)CCN1 [Example 182, (2-{(S)-4-[(2-oxopiperazin-4-yl)-ethyl]-4,5-dihydro-thiazol-2-yl}-1H-indol-7-yl)-(tetrahydro-pyran-4-yl)-amine] | 375 nM | 
13 | OC[C@@H]1CSC(c2cc3cccc(NC4CCCC4)c3[nH]2)=N1 [Example 2, [(R)-2-(7-cyclopentylamino-1H-indol-2-yl)-4,5-dihydro-1,3-thiazol-4-yl]-methanol] | 100 nM | 
14 | CCOc1cc(NC2CCCC2)c2[nH]c(C3=N[C@@H](CC(=O)O)CS3)cc2c1 [Example 47, [(S)-2-(5-ethoxy-7-cyclopentylamino-1H-indol-2-yl)-4,5-dihydro-thiazol-4-yl]-acetic acid] | 360 nM | 
15 | CC(C)(C)OC(=O)N1CCN(CC[C@H]2CSC(c3cc4cc(Oc5ccccc5)cc(NC5CCCC5)c4[nH]3)=N2)CC1 [Example 231, t-Butyl-(4-{2-[(S)-2-(5-phenoxy-7-cyclopentylamino)-1H-indol-2-yl)-4,5-dihydro-thiazol-4-yl]-ethyl}-piperazine-1-carboxylate] |  | 200 nM
16 | Cc1cc(NCC2CCOCC2)c2[nH]c(C3=N[C@H](CC(=O)O)CS3)cc2c1 [Example 8, [(R)-2-(5-methyl-7-(tetrahydropyran-4-yl)methylamino-1H-indol-2-yl)-4,5-dihydro-thiazol-4-yl]-acetic acid] | 410 nM | 
17 | O=C(O)C[C@H]1CSC(c2cc3cc(Oc4ccccc4)cc(NC4CCCC4)c3[nH]2)=N1 [Example 50, [(S)-2-(5-phenoxy-7-cyclopentylamino-1H-indol-2-yl)-4,5-dihydro-thiazol-4-yl]-acetic acid] | 250 nM | 
18 | OC[C@@H]1CSC(c2cc3cccc(NC4CCOC4)c3[nH]2)=N1 (stereo partly drawn) [Example 52, [(R)-2-(7-(tetrahydrofuran-3-yl)amino-1H-indol-2-yl)-4,5-dihydro-thiazol-4-yl]-methanol] | 750 nM | 
19 | Cc1cc(NC2CCC(F)(F)CC2)c2[nH]c(C3=N[C@@H](CCN4CCNC(=O)C4)CS3)cc2c1 [Example 250, (5-Methyl-2-{(S)-4-[2-oxopiperazin-4-yl-ethyl]-4,5-dihydro-thiazol-2-yl}-1H-indol-7-yl)-4,4-difluorocyclohexyl-amine] | 90 nM | 
20 | Cc1cc(NCC2CCOCC2)c2[nH]c(C3=N[C@@H](CCN4CCCC4C(N)=O)CS3)cc2c1 (stereo partly drawn) [Example 240, (5-Methyl-2-{(S)-4-[2-(aminocarbonyl)pyrrolidin-1-yl-ethyl]-4,5-dihydro-thiazol-2-yl}-1H-indol-7-yl)-(tetrahydropyran-4-yl)methyl-amine] | 280 nM | 
21 | O=C(O)C[C@@H]1CSC(c2cc3cc(F)cc(NC4CCCC4)c3[nH]2)=N1 [Example 71, [(R)-2-(5-fluoro-7-cyclopentylamino-1H-indol-2-yl)-4,5-dihydro-thiazol-4-yl]-acetic acid] | 1100 nM | 
22 | CC(=O)N1CCC(Nc2cc(C)cc3cc(C4=N[C@@H](CC(=O)O)CS4)[nH]c23)C1 (stereo partly drawn) [Example 13, [(S)-2-(5-methyl-7-(1-acetylpyrrolidin-3-yl)amino-1H-indol-2-yl)-4,5-dihydro-thiazol-4-yl]-acetic acid] | 1130 nM | 
23 | CCOP(=O)(CC[C@H]1CSC(c2cc3cc(C)cc(NCC4CCOCC4)c3[nH]2)=N1)OCC [Example 244, (5-Methyl-2-{(S)-4-[2-diethoxyphosphoryl-ethyl]-4,5-dihydro-thiazol-2-yl}-1H-indol-7-yl)-(tetrahydropyran-4-yl)methyl-amine] | 195 nM | 
24 | CC1CSC(c2cc3cccc(NC4CCOCC4)c3[nH]2)=N1 (centres unmarked) [Example 32, (Tetrahydropyran-4-yl)-[2-(4,5-dihydro-4-methyl-thiazol-2-yl)-1H-indol-7-yl]-amine] | 2120 nM | 
25 | Cc1cc(NC2CCOCC2)c2[nH]c(C3=N[C@@H](CCN4CCOCC4)CS3)cc2c1 [Example 184, (5-Methyl-2-{(S)-4-[(morpholin-4-yl)-ethyl]-4,5-dihydro-thiazol-2-yl}-1H-indol-7-yl)-(tetrahydro-pyran-4-yl)-amine] | 180 nM | 
26 | CCOc1cc(NC2CCCC2)c2[nH]c(C3=N[C@H](CC(=O)O)CS3)cc2c1 [Example 83, [(R)-2-(5-ethoxy-7-cyclopentylamino-1H-indol-2-yl)-4,5-dihydro-thiazol-4-yl]-acetic acid] | 600 nM | 
